From article PMC12114750 (Pharmaceuticals, 2025)
Read-outs that look alike come from different tables or passages of the source.

Columns and labels:
[1] = target: T1, Butyrylcholinesterase (from equine serum) (Equus caballus, UniProt P81908); experiment: biochemical; assay type: biochemical; details: for inhibition at 50 µM: read-out: BChE Inhibition (%); for Ki: read-out: BChE Ki
T1 construct: Butyrylcholinesterase (from equine serum); purchased Sigma; host or cells: equine serum
Procedure: (§1) The inhibitory effects of the compounds on AChE and BChE were assessed by Elman’s method.
(§2) Acetylcholinesterase (from Electrophorus electricus), Butyrylcholinesterase (from equine serum), 5,5′-dithiobis-(2-nitrobenzoic acid) (DTNB), and acetylthiocholine iodide were purchased from Sigma.
Preparation of 50 mM Tris-HCl buffer solutions: Tris(hydroxymethyl)-aminomethane (606 mg) was dissolved in bidestilled water (100 mL) and adjusted with HCl to a pH of 8.0 ± 0.1. Buffers were freshly prepared and stored in the refrigerator. AChE solution 2.005 U/mL: The enzyme (271 U/mg, 0.037 mg) was dissolved in freshly prepared buffer pH 8.0 (5 mL) containing NaN3 (0.98 mg). BChE solution 2.040 U/mL: The enzyme (7.54 U/mg, 1.353 mg) was dissolved in freshly prepared buffer pH 8.0 (5 mL) containing NaN3 (0.98 mg). DTNB solution 3 mM: DTNB (23.8 mg) was dissolved in freshly prepared buffer pH 8.0 (20 mL) containing NaCl (116.8 mg) and MgCl2 (38.0 mg). ATChI solution 15 mM: ATChI (43.4 mg) was dissolved in bidestilled water (10 mL). All solutions were stored in Eppendorf caps in the refrigerator or in the freezer, if necessary. […] The final concentrations for the enzymatic assay were obtained by diluting the stock solution with bidistilled water.
BMG Labtech Spectrostar Omega plate reader working in the slow kinetics mode and measuring the absorbance at a distinct wavelength of λ = 412 nm with center scanning mode was used for the enzymatic studies. In short, a mixture of a DTNB solution (125 µL, 3 mM in 50 mM Tris-HCl buffer, pH 8), enzyme solution (25 µL, 2 U/mL), and compounds solutions (25 µL, 3 different concentrations and water as a blank) was incubated at 30 °C for 20 min. The substrate (25 µL, [ATChI] = 0.9375 mM, 0.625 mM, […], 0.1875 mM) was added to start the enzymatic reaction. The absorbance data were recorded under a controlled temperature of 30 °C for 30 min at 1 min intervals at l = 412 nm. The relative inhibition was determined as the quotient of the slopes (compound divided by blank) of the linear ranges (10 repetitions). Galantamin was used as control substance. To determine the kinetic constants, standard linearization methods were used after applying an internal standard (Dixon/Cornish–Bowden plots) (triplicates).

[2] = test system: HCT-15 (colorectal adenocarcinoma); experiment: cells; assay type: cell-based, human; details: for IC50: Homo sapiens, HCT-15, 24 h, MTT
Procedure: (§3) Breast adenocarcinoma cells (MCF-7; DSMZ: ACC 115), colon adenocarcinoma cells (HTC-15; DSMZ: CCL-225), and prostate cells (DU-145; ATCC: HRB-81) were cultured in RPMI 1640 medium.
(§4) Cells were seeded at an appropriate density to promote optimal growth, and the culture medium was replaced every 48 h. Once cells reached 80–90% confluence, subculture was performed using 0.25% trypsin-EDTA to dissociate the cells, by 2 min and put inside of chamber during 5 min, according to the protocol provided by the biobanks. The cell lines were maintained at 37 °C in a humidified incubator with 5% CO2 and 95% humidity.
(§5) Cells were seeded in 96-well plates (HepG-2: 2.5 ×10^4 cells; HCT-15: 2.5 × 10^4 cells/mL; MCF-7: 2.5 × 10^4 cells/mL; SH-SY5Y: 5.0 × 10^4 cells/mL; FL83B: 5.0 × 10^4 cell/mL; DU-145: 5.0 × 10^4 cell/mL). Cancer cell lines were exposed to compounds (100 μM) for 24 h and vehicle/controls were included to assess potential solvent interference. Cell viability was assessed using MTT assay. Then, the culture medium was removed and 100 μL of MTT (0.5 mg/mL) was added to each cell. Cells were incubated for 1 h in the dark under the same culture condition (37 °C, 5% CO2, 95% humidity). After incubation, the intracellular formazan crystals were solubilized with 100 μL DMSO and, after […], the absorbance was measured at 570 nm using a microplate reader (Synergy H1). […] Results were expressed as a percentage of control untreated cells and the half-maximal inhibitory concentration (IC50) values were determined using nonlinear regression analysis (GraphPad Prism, 8.1, GraphPad Software, San Diego, CA, USA).

[3] = test system: MCF-7 (breast adenocarcinoma); experiment: cells; assay type: cell-based; details: for IC50: Homo sapiens, MCF7, 24 h, MTT
Procedure: as §3, §4, §5

[4] = test system: DU-145 (prostate adenocarcinoma); experiment: Cytotoxicity MTT assay, DU-145; assay type: cell-based, human; details: for IC50: 24 h, MTT
Procedure: as §3, §4, §5

[5] = test system: SH-SY5Y neuroblastoma cell line; experiment: Cytotoxicity MTT assay, SH-SY5Y; assay type: cell-based, human; details: 24 h
Procedure: (§6) Hepatocyte cells (FL83B; ATCC: CLR-2390) were cultured in F-12K medium. Human neuroblastoma (SH-SY5Y; ATCC: CRL-2266) cells were cultivated in DMEM/F12 medium. All media were supplemented with fetal bovine serum (10%) (Biowest, Riverside, MO, USA) and 1% antibiotic/antimycotic solution (Biowest, Nuaill’e, France).
as §4, §5

[6] = test system: differentiated SH-SY5Y neuroblastoma cells; experiment: Neuroprotective capacity on a Parkinson's disease cellular model (6-OHDA, MTT); details: 6-OHDA 100 μM, 24 h
Procedure: Only at these non-toxic concentrations (0.01–10 µM; 24 h) were the compounds subsequently tested for their neuroprotective potential in an in vitro PD damage model using differentiated SH-SY5Y neuroblastoma cells. The cells, previously differentiated to obtain a dopaminergic neuronal phenotype [52], were treated with compounds in the presence of the neurotoxin 6-OHDA (100 µM). The cells’ viability was estimated using the 3-(4,5-dimethylthiazol-2-yl)−2,5-diphenyltetrazolium bromide (MTT) assay.
Cells were differentiated to obtain dopaminergic neuronal phenotype according to [52], with slight modifications. […] At the end of the 8th day, the cytotoxicity assay was performed.
Cell viability on SH-SY5Y cells was evaluated after exposure to the compounds at 10 μM for 24 h. […] The cell viability and neuroprotective effects were assessed by a colorimetric assay based on the reduction of tetrazolium salts MTT (VWR, Solon, OH, USA) to blue formazan products, according to [61]. Saponin (Sigma-Aldrich, Steinheim, Germany) was used as a positive control for inducing cellular death. The results were expressed as a percentage of the control (untreated cells).

[7] = test system: FL83B hepatocytes; experiment: Cytotoxicity (in vitro hepatotoxicity) MTT assay, FL83B; assay type: cell-based; details: 24 h, normal murine hepatocytes
Procedure: as §6, §4, §5

[8] = target: T2, Acetylcholinesterase (from Electrophorus electricus) (Electrophorus electricus, UniProt O42275); experiment: biochemical; details: read-out: AChE Inhibition (%)
T2 construct: purchased Sigma
T2 sequence (O42275 24-633): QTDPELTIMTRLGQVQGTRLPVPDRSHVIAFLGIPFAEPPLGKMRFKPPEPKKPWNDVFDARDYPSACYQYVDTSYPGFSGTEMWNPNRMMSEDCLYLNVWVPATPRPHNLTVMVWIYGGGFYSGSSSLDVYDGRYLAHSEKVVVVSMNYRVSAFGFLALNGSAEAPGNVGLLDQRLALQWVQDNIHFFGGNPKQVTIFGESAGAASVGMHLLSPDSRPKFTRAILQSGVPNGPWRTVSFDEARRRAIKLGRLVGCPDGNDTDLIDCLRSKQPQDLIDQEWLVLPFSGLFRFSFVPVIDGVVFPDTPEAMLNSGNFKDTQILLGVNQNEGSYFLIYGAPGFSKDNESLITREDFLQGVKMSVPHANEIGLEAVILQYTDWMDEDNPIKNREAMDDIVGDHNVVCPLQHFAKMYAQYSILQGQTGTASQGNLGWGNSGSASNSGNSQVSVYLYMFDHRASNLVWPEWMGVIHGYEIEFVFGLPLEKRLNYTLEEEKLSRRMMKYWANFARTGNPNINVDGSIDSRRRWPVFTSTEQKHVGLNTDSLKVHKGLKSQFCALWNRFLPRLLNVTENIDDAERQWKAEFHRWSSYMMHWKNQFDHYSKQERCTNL
Procedure: as §1, §2
Preparation of 50 mM Tris-HCl buffer solutions: Tris(hydroxymethyl)-aminomethane (606 mg) was dissolved in bidestilled water (100 mL) and adjusted with HCl to a pH of 8.0 ± 0.1. Buffers were freshly prepared and stored in the refrigerator. AChE solution 2.005 U/mL: The enzyme (271 U/mg, 0.037 mg) was dissolved in freshly prepared buffer pH 8.0 (5 mL) containing NaN3 (0.98 mg). BChE solution 2.040 U/mL: The enzyme (7.54 U/mg, 1.353 mg) was dissolved in freshly prepared buffer pH 8.0 (5 mL) containing NaN3 (0.98 mg). DTNB solution 3 mM: DTNB (23.8 mg) was dissolved in freshly prepared buffer pH 8.0 (20 mL) containing NaCl (116.8 mg) and MgCl2 (38.0 mg). […]
BMG Labtech Spectrostar Omega plate reader working in the slow kinetics mode and measuring the absorbance at a distinct wavelength of λ = 412 nm with center scanning mode was used for the enzymatic studies. […] The absorbance data were recorded under a controlled temperature of 30 °C for 30 min at 1 min intervals at l = 412 nm. The relative inhibition was determined as the quotient of the slopes (compound divided by blank) of the linear ranges (10 repetitions). […]

T1 sequence (P81908 whole entry): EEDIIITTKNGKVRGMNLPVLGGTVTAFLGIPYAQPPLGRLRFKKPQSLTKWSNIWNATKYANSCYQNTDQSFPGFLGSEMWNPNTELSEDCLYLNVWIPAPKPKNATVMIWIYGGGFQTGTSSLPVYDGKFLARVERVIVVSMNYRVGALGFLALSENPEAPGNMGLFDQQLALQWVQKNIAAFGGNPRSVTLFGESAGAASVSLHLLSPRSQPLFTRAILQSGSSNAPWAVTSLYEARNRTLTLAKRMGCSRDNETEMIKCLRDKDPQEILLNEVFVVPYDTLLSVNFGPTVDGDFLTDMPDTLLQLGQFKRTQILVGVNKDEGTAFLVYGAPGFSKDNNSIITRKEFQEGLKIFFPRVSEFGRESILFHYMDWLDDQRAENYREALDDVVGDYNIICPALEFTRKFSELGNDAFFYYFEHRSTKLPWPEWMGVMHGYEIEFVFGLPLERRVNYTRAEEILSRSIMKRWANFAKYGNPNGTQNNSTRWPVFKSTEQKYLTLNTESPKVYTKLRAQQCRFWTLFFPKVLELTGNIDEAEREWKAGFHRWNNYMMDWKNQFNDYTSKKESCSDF

With COc1ccc2c3c1O[C@H]1C[C@@H](O)C=C[C@@]31CCN(C)C2 [Galantamine, reference compound] the “BChE type of inhibition” value [1] was “competitive” and the inhibition at 50 µM [1] was 52 ± 0.5%.

CC(=O)O[C@@H]1[C@@H](OCc2ccccc2)[C@@H](CN=[N+]=[N-])O[C@H]1n1ccc(=O)[nH]c1=O [Compound 9, 1-(2-O-Acetyl-5-azido-3-O-benzyl-5-deoxy-β-D-xylofuranosyl)uracil] was tested, and the IC50 [2] was > 100 µM, the IC50 [3] was > 100 µM and the IC50 ([4]; Homo sapiens, DU-145) was > 100 µM. For the same compound, the IC50 ([5]; Homo sapiens, SH-SY5Y) was > 100 µM.

With NCCc1cc(O)c(O)cc1O [Compound 6-OHDA, 6-hydroxydopamine] the “reduction of differentiated SH-SY5Y cells' viability” value [6] was 40% and the “viable cells, 6-OHDA alone” value ([6]; MTT, % of control) was 61.3 ± 1.4 % of viable cells.

N.N.[Cl][Pt][Cl] [Cisplatin, reference compound] was tested, and the IC50 [4] was > 100 µM, the IC50 [5] was 13.9 µM and the IC50 [7] was 25.7 µM.

CC(=O)O[C@@H]1CN(C(C)=O)C(=O)[C@H](OC(C)=O)[C@H]1OCc1ccccc1 [Compound 3, N-acetyl 2,4-di-O-acetyl-3-O-benzyl-D-xylono-1,5-lactam] was tested, and the IC50 [2] was > 100 µM, the IC50 [3] was > 100 µM and the IC50 ([4]; Homo sapiens, DU-145) was > 100 µM. The IC50 ([5]; Homo sapiens, SH-SY5Y) was > 100 µM.

With CC(=O)O[C@@H]1[C@@H](OCc2ccccc2)[C@@H](CN=[N+]=[N-])O[C@H]1n1cnc2c(Cl)ncnc21 [Compound 7, 9-(2-O-Acetyl-5-azido-3-O-benzyl-5-deoxy-β-D-xylofuranosyl)-6-chloropurine] the IC50 [2] was 72.7 µM, the IC50 [3] was > 100 µM and the IC50 ([4]; Homo sapiens, DU-145) was > 100 µM. For the same compound, the IC50 ([5]; Homo sapiens, SH-SY5Y) was > 100 µM and the IC50 ([7]; Mus musculus, FL83B) was 22.7 µM.

In the case of CC(=O)OC1C(OCc2ccccc2)C(CNC(=NC(=O)OC(C)(C)C)NC(=O)OC(C)(C)C)OC1n1cnc2ncnc(Cl)c21 [Compound 11, 7-(2-O-acetyl-3-O-benzyl-5-deoxy-5-[N′,N′′-bis(tert-butoxycarbonyl)]guanidino-β-D-xylofuranosyl)-6-chloropurine], the inhibition at 50 µM [8] is reported as 34.6 ± 1.4%, the “BChE Ki, fold higher than that of the N^9-counterpart” value [1] is reported as “ca. 2 fold” and the “BChE inhibitory activity, fold higher than that of galantamine” value [1] is reported as ~4 fold. For the same compound, the “BChE type of inhibition” value [1] was “mixed-type”, the Ki ([1]; competitive component) was 2.34 ± 0.2 µM and the inhibition at 50 µM [1] was 65.2 ± 0.9%. For the same compound, the “BChE Ki′” value ([1]; uncompetitive component) was 10.6 ± 1.4 µM, the IC50 [2] was 64.1 µM and the “cytotoxicity in MCF-7 cells, fold lower than tamoxifen” value [3] was 1.6 fold. For the same compound, the IC50 [3] was 43.7 µM, the “effect against DU-145 cells, fold higher than cisplatin” value [4] was 4 fold and the IC50 ([4]; Homo sapiens, DU-145) was 24.5 µM. For the same compound, the IC50 ([5]; Homo sapiens, SH-SY5Y) was 12.1 µM and the IC50 ([7]; Mus musculus, FL83B) was 24.1 µM.

With CC(=O)O[C@@H]1[C@@H](OCc2ccccc2)[C@@H](CNC(=NC(=O)OC(C)(C)C)NC(=O)OC(C)(C)C)O[C@H]1n1ccc(=O)[nH]c1=O [Compound 12, 1-(2-O-Acetyl-3-O-benzyl-5-deoxy-5-[N′,N′′-bis(tert-butoxycarbonyl)]guanidino-β-d-xylofuranosyl)uracil] the “cytotoxicity against HCT-15, fold higher (IC50 fold lower) than 5-fluorouracil” value [2] was “ca. 2 fold”, the IC50 [2] was 76 µM and the IC50 [3] was > 100 µM. For the same compound, the IC50 ([4]; Homo sapiens, DU-145) was > 100 µM, the IC50 ([5]; Homo sapiens, SH-SY5Y) was > 100 µM and the IC50 ([7]; Mus musculus, FL83B) was > 100 µM.

In the case of CC(=O)O[C@@H]1[C@@H](OCc2ccccc2)[C@@H](CN=[N+]=[N-])O[C@H]1n1cnc2ncnc(Cl)c21 [Compound 8, 7-(2-O-acetyl-5-azido-3-O-benzyl-5-deoxy-β-D-xylofuranosyl)-6-chloropurine], the IC50 [2] is reported as > 100 µM, the IC50 [3] is reported as > 100 µM and the IC50 ([4]; Homo sapiens, DU-145) is reported as > 100 µM. For the same compound, the IC50 ([5]; Homo sapiens, SH-SY5Y) was > 100 µM.

CC(=O)OC1C(OCc2ccccc2)C(CNC(=NC(=O)OC(C)(C)C)NC(=O)OC(C)(C)C)OC1n1cnc2c(Cl)ncnc21 [Compound 10, 9-{2-O-acetyl-3-O-benzyl-5-deoxy-5-[N′,N′′-bis(tert-butoxycarbonyl)]guanidino-β-D-xylofuranosyl}-6-chloropurine] was tested, and the inhibition at 50 µM [8] was 39.1 ± 0.9%, the “BChE inhibitory activity, fold higher than that of galantamine” value [1] was “ca. 10 fold” and the “BChE type of inhibition” value [1] was “mixed-type”. The Ki ([1]; competitive component) was 0.89 ± 0.08 µM, the inhibition at 50 µM [1] was 83.8 ± 1.3% and the “BChE Ki′” value ([1]; uncompetitive component) was 2.96 ± 0.39 µM. For the same compound, the Ki ([1]; uncompetitive component, listed as N^9 regioisomer) was 2.96 µM, the IC50 [2] was > 100 µM and the IC50 [3] was > 100 µM. The IC50 ([4]; Homo sapiens, DU-145) was 27.6 µM, the IC50 ([5]; Homo sapiens, SH-SY5Y) was > 100 µM and the IC50 ([7]; Mus musculus, FL83B) was 73.7 µM.

O=c1[nH]cc(F)c(=O)[nH]1 [5-Fluorouracil, reference compound] was tested, and the IC50 [2] was 156 µM and the IC50 ([7]; Mus musculus, FL83B) was > 100 µM.
